Here are results for two compounds from patent publication US20040235849A1, “Tetrahydroquinoxalines acting as bradykinin antagonists” (priority 2001, published 2004).

The target of this assay is T1, human B1 receptor (Homo sapiens, UniProt P46663).
T1 construct: expressed in transfected cells
T1 sequence (P46663 1-353): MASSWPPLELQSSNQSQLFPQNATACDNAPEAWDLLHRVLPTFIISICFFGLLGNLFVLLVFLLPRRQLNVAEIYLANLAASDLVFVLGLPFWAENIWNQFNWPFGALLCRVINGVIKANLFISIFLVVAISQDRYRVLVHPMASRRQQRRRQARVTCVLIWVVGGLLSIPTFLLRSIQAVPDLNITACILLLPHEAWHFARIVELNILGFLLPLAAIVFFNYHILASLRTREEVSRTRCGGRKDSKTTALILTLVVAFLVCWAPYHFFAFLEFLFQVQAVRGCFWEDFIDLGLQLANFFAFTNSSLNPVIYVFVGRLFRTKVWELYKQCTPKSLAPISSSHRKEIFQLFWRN
The experiment in a line: Functional in vitro assay: B1 receptor antagonism measured via agonist-induced intracellular calcium release in recombinant cell lines. It is filed as cell-based. Conditions: stable cell lines, e.g. CHO or HEK 293, recombinantly expressing the human B1 receptor. The source says:
1. Functional in vitro Assay
Agonists such as des-Arg9-BK and des-Arg10-kallidin activate the B1 receptor and lead, via stimulation of phospholipase C, to release of calcium ions from intracellular stores. Antagonists block the activation of the receptor by the agonists and thus also the agonist-dependent stimulation of phospholipase C and the intracellular calcium release induced thereby.
A functional in vitro assay can be carried out with stable cell lines, e.g. CHO or HEK 293, which recombinantly express the human B1 receptor. This entails measuring the activation of the receptor by the agonist indirectly via the intracellular calcium release induced thereby (in microtiter plates with 96, 384 and 1536 wells/plate). The effect of the tested substances can be stated as IC50.

For `O=C(CC1C(=O)Nc2ccccc2N1S(=O)(=O)c1cc(Cl)ccc1Oc1ccc(Cl)cc1)NC1CCCCCC1` (centres unmarked) [Example 170], the IC50 stood at 25 nM.

With `O=C(CC1C(=O)Nc2ccccc2N1S(=O)(=O)c1ccc(Cl)cc1Cl)NC1CCCCCC1` (centres unmarked) [Example 177], the IC50 is 17 nM.

Usually IC50 stands for the point on the concentration scale where inhibition reaches its midpoint.
